Laboratory results from patent US20060264460A1 (Wyeth, priority 2005, published 2006).
pIC50: −log10 of the molar value.

Target: T1, human Cot/Tpl2 kinase (Homo sapiens, UniProt P41279)
T1 construct: human Cot/Tpl2 kinase construct encoding residues 30-398; 6His (N); made in house; host or cells: Sf9 insect cells, baculovirus system (BD Biosciences)
Experiment: Tpl2/Cot kinase assay: GST-MEK1 phosphorylation detected by ELISA (DELFIA Eu)
Assay type: biochemical
Settings: 0.4 nM Tpl2, 35 nM GST-MEK1, 50 uM ATP, 1 h at 30° C.
Summary of the method: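 His-tagged human Tpl2 from Sf9 cells, Ni-affinity and size-exclusion purified (monomer). 0.4 nM Tpl2 with 35 nM GST-MEK1, 50 uM ATP, MOPS pH 7.2, 1% DMSO, 1 h at 30° C; EDTA stop. MEK1 Ser217/221 phosphorylation detected by anti-phospho-MEK1 and Eu-labelled secondary ELISA; IC50 fitted.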

T1 sequence (P41279 30-398): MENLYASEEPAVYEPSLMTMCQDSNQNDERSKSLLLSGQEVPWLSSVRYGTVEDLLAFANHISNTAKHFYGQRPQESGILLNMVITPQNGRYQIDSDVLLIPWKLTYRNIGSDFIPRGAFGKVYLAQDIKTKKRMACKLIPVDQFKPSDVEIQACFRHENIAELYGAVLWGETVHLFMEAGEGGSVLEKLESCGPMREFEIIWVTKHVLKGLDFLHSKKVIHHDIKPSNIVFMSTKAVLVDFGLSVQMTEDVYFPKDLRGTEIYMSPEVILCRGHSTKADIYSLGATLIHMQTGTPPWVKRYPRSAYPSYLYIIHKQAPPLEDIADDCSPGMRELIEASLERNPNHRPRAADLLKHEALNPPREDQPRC

First: N#Cc1cnc2c(Cl)cc(NCCc3cnc[nH]3)cc2c1Nc1ccc(F)c(Cl)c1 [Example 283, 8-chloro-4-[(3-chloro-4-fluorophenyl)amino]-6-{[2-(1H-imidazol-5-yl)ethyl]amino}quinoline-3-carbonitrile]
Second: CCOc1cc2ncc(C#N)c(Nc3ccc(F)c(Cl)c3)c2cc1NCc1cnc[nH]1 [Example 165, 6-((1H-imidazol-5-yl)methylamino)-4-(3-chloro-4-fluorophenylamino)-7-ethoxyquinoline-3-carbonitrile]
The pIC50 of the first is higher: 6.89 for the first, under 4.40 for the second. The first is the more potent here.

Compared with N#Cc1ccccc1CNc1ccc2ncc(C#N)c(Nc3ccc(F)c(Cl)c3)c2c1 [Example 21, 4-(3-Chloro-4-fluoro-phenylamino)-6-(2-cyano-benzylamino)-quinoline-3-carbonitrile], N#Cc1cnc2ccc(NCc3cccc(O)c3)cc2c1Nc1ccc(F)c(Cl)c1 [Example 53, 4-(3-Chloro-4-fluoro-phenylamino)-6-(3-hydroxy-benzylamino)-quinoline-3-carbonitrile] is 0.62 log units lower in pIC50: 6.89 for the first, 6.27 for the second.

Compared with N#Cc1cnc2c(Br)cc(NCc3nn[nH]c3-c3ccccc3C(F)(F)F)cc2c1Nc1ccc(F)c(Cl)c1 [Example 153, 8-bromo-4-[(3-chloro-4-fluorophenyl)amino]-6-[({5-[2-(trifluoromethyl)phenyl]-1H-1,2,3-triazol-4-yl}methyl)amino]quinoline-3-carbonitrile], N#Cc1cnc2c(Br)cc(NCc3ccccn3)cc2c1Nc1ccc(F)c(Cl)c1 [Example 78, 8-bromo-4-(3-chloro-4-fluorophenylamino)-6-(pyridin-2-ylmethylamino)quinoline-3-carbonitrile] is 0.46 log units higher in pIC50: 6.66 for the first, 7.12 for the second.

First: CN(C)C(=O)c1cc(NCCN2CCOCC2)cc2c(Nc3cccc(Cl)c3)c(C#N)cnc12 [Example 68, 4-(3-chlorophenylamino)-3-cyano-N,N-dimethyl-6-(2-morpholinoethylamino)quinoline-8-carboxamide]
Second: N#Cc1cnc2ccc(NCc3cnc(N4CCOCC4)s3)cc2c1Nc1ccc(F)c(Cl)c1 [Example 243, 4-[(3-chloro-4-fluorophenyl)amino]-6-{[(2-morpholin-4-yl-1,3-thiazol-5-yl)methyl]amino}quinoline-3-carbonitrile]
The pIC50 of the first is higher: 4.96 for the first, under 4.40 for the second.

First: N#Cc1cnc2ccc(NCc3ccc[n+]([O-])c3)cc2c1Nc1ccc(F)c(Cl)c1 [Example 30, 4-(3-Chloro-4-fluoro-phenylamino)-6-[(1-oxy-pyridin-3-ylmethyl)-amino]-quinoline-3-carbonitrile]
Second: N#Cc1cnc2ccc(NCc3cccc(Br)n3)cc2c1Nc1ccc(F)c(Cl)c1 [Example 258, 6-{[(6-bromopyridin-2-yl)methyl]amino}-4-[(3-chloro-4fluorophenyl)amino]quinoline-3-carbonitrile]
The pIC50 of the first is 0.32 log units higher: 6.89 for the first, 6.57 for the second. The first is the more potent here.

First: Cc1nc(CNc2cc(Cl)c3ncc(C#N)c(Nc4ccc(F)c(Cl)c4)c3c2)cn1CC(N)=O [Example 191, 2-(4-((8-chloro-4-(3-chloro-4-fluorophenylamino)-3-cyanoquinolin-6-ylamino)methyl)-2-methyl-1H-imidazol-1-yl)acetamide]
Second: Cc1c(CNc2cc(F)c3ncc(C#N)c(Nc4ccc(F)c(Cl)c4)c3c2)ncn1C [Example 269, 4-[(3-chloro-4-fluorophenyl)amino]-6-{[(1,5-dimethyl-1H-imidazol-4-yl)methyl]amino}-8-fluoroquinoline-3-carbonitrile]
The pIC50 of the first is 0.61 log units lower: 7.19 for the first, 7.80 for the second. The second is the more potent here.

Compared with N#Cc1cnc2ccc(NC[C@@H]3CCCN3)cc2c1Nc1ccc(F)c(Cl)c1 [Example 43, 4-(3-Chloro-4-fluoro-phenylamino)-6-[(L-pyrrolidin-2-ylmethyl)-amino]-quinoline-3-carbonitrile], N#Cc1cnc2ccc(NC3CCCC3c3ccccn3)cc2c1Nc1ccc(F)c(Cl)c1 (stereo not drawn) [Example 256, 4-[(3-chloro-4-fluorophenyl)amino]-6-[(2-pyridin-2-ylcyclopentyl)amino]quinoline-3-carbonitrile] is 1.69 log units higher in pIC50: 4.82 for the first, 6.51 for the second. The second is the more potent here.

Going from Cn1c(CNc2ccc3ncc(C#N)c(Nc4ccc(F)c(Cl)c4)c3c2)nc2ccccc21 [Example 7, 4-(3-Chloro-4-fluoro-phenylamino)-6-[(1-methyl-1H-benzoimidazol-2-ylmethyl)-amino]-quinoline-3-carbonitrile] to CN(C)c1ccc(CNc2ccc3ncc(C#N)c(Nc4ccc(F)c(Cl)c4)c3c2)c(Br)c1 [Example 56, 6-(2-Bromo-4-dimethylamino-benzylamino)-4-(3-chloro-4-fluoro-phenylamino)-quinoline-3-carbonitrile], the pIC50 falls from 7.74 to 5.47 (2.27 log units).

Going from CC(C)(C)Nc1c(C#N)cnc2c(Br)cc(NCc3cccc[n+]3[O-])cc12 [Example 104, 8-bromo-4-(tert-butylamino)-6-(1-oxypyridin-2-ylmethylamino)quinoline-3-carbonitrile] to Cc1cc2ncc(C#N)c(Nc3ccc(F)c(Cl)c3)c2cc1NCc1cccnc1 [Example 225, 4-[(3-Chloro-4-fluorophenyl)amino]-7-methyl-6-[(pyridin-3-ylmethyl)amino]quinoline-3-carbonitrile], the pIC50 falls from 5.82 to under 4.40. The first is the more potent here.

Same assay, conditions: Table 2; Tpl2/Cot kinase, GST-MEK1 substrate, 50 uM ATP

First: CN1CC(CCn2cc(CNc3cc(Cl)c4ncc(C#N)c(Nc5ccc(F)c(Cl)c5)c4c3)nn2)N(C)C1=O (stereo not drawn) [Example 615]
Second: Cn1nnnc1CCNc1cc(Cl)c2ncc(C#N)c(Nc3ccc(F)c(Cl)c3)c2c1 [Example 469]
The pIC50 of the first is 1.44 log units higher: 8.21 for the first, 6.77 for the second.

Going from CN(C)C(=O)CNc1cc(Cl)c2ncc(C#N)c(Nc3ccc(F)c(Cl)c3)c2c1 [Example 474] to N#Cc1cnc2c(Cl)cc(N)cc2c1Nc1ccc(F)c(Cl)c1 [Example 409], the pIC50 rises from 5.77 to 6.04 (0.27 log units).

N#Cc1cccc(CNc2ccc3ncc(C#N)c(NC4CCCC4)c3c2)c1 [Example 420] and N#Cc1ccccc1CNc1ccc2ncc(C#N)c(NC3CCCC3)c2c1 [Example 416] are within 0.2 log units of each other in pIC50: 5.66 for the first, 5.77 for the second.

N#Cc1cnc2c(Br)cc(NCc3cn(CC4CCNCC4)nn3)cc2c1Nc1ccc(F)c(Cl)c1 [Example 496] and N#Cc1cnc2c(Br)cc(NCc3cn(Cc4ccccn4)nn3)cc2c1Nc1ccc(F)c(Cl)c1 [Example 579] are within 0.2 log units of each other in pIC50: 7.33 for the first, 7.48 for the second.

Going from Cc1c(CNc2ccc3ncc(C#N)c(Nc4ccc(F)c(Cl)c4)c3c2)ncn1C [Example 370] to Cc1cc(CNc2ccc3ncc(C#N)c(Nc4ccc(F)c(Cl)c4)c3c2)n[nH]1 [Example 385], the pIC50 falls from 8.49 to 6.96 (1.53 log units).

For N#Cc1cnc2c(Cl)cc(NCC(=O)NCc3ccccn3)cc2c1Nc1ccc(F)c(Cl)c1 [Example 607], the pIC50 was 6.48.

Same assay, conditions: Tpl2/Cot kinase, GST-MEK1 substrate, 50 uM ATP

Compared with C[S+]([O-])Cn1cc(CNc2cc(Br)c3ncc(C#N)c(Nc4ccc(F)c(Cl)c4)c3c2)nn1 (stereo not drawn) [Example 703], CN(C)CCCn1cc(CNc2cc(Br)c3ncc(C#N)c(Nc4ccc(F)c(Cl)c4)c3c2)nn1 [Example 662] is 0.78 log units higher in pIC50: 6.92 for the first, 7.70 for the second. The second is the more potent here.

First: N#Cc1cnc2c(Cl)cc(NCC(=O)N3CCCCCC3)cc2c1Nc1ccc(F)c(Cl)c1 [Example 885]
Second: CC(=O)N1CCC[C@H]1CNc1cc(Cl)c2ncc(C#N)c(Nc3ccc(F)c(Cl)c3)c2c1 [Example 810]
The pIC50 of the first is 0.86 log units lower: 6.41 for the first, 7.27 for the second.

Compared with CN1CCCC1CCNC(=O)Cn1cc(CNc2cc(Cl)c3ncc(C#N)c(Nc4ccc(F)c(Cl)c4)c3c2)nn1 (stereo not drawn) [Example 817], N#Cc1cnc2c(Cl)cc(NCc3cn(CCC4CCNCC4)nn3)cc2c1Nc1ccc(F)c(Cl)c1 [Example 692] is 1.27 log units lower in pIC50: 8.16 for the first, 6.89 for the second.

First: CN1CCCN(CCCn2cc(CNc3cc(Cl)c4ncc(C#N)c(Nc5ccc(F)c(Cl)c5)c4c3)nn2)CC1 [Example 794]
Second: COCCOCCn1cc(CNc2cc(Cl)c3ncc(C#N)c(Nc4ccc(F)c(Cl)c4)c3c2)nn1 [Example 744]
The pIC50 of the first is 0.36 log units lower: 7.32 for the first, 7.68 for the second. The second is the more potent here.

CN(C)CC(c1ccccc1)n1cc(CNc2cc(Cl)c3ncc(C#N)c(Nc4ccc(F)c(Cl)c4)c3c2)nn1 (stereo not drawn) [Example 740] and CN(C)CC(c1ccccc1)n1cc(CNc2cc(Br)c3ncc(C#N)c(Nc4ccc(F)c(Cl)c4)c3c2)nn1 (stereo not drawn) [Example 739] are within 0.2 log units of each other in pIC50: 7.15 for the first, 7.03 for the second.

First: CCN1CC(CCn2cc(CNc3cc(Cl)c4ncc(C#N)c(Nc5ccc(F)c(Cl)c5)c4c3)nn2)N(c2ccccc2)C1=S (stereo not drawn) [Example 792]
Second: CN(CCn1cc(CNc2cc(Cl)c3ncc(C#N)c(Nc4ccc(F)c(Cl)c4)c3c2)nn1)C(=O)OC(C)(C)C [Example 676]
The pIC50 of the first is 0.43 log units lower: 6.89 for the first, 7.32 for the second.

Going from COCCCNC(=O)CNc1cc(Cl)c2ncc(C#N)c(Nc3ccc(F)c(Cl)c3)c2c1 [Example 779] to CCN1CCCCC1CNc1cc(Cl)c2ncc(C#N)c(Nc3ccc(F)c(Cl)c3)c2c1 (stereo not drawn) [Example 870], the pIC50 falls from 6.64 to 5.71 (0.93 log units). The first is the more potent here.

CN(CCn1cc(CNc2cc(Br)c3ncc(C#N)c(Nc4ccc(F)c(Cl)c4)c3c2)nn1)C(=O)OC(C)(C)C [Example 678] was tested, and the pIC50 was 7.17.

Same assay, conditions: Tpl2/Cot kinase, GST-MEK1 substrate, 50 uM ATP, 1 h at 30° C.; Table 2

Compared with N#Cc1cnc2c(Cl)cc(NCc3cn(C4CCN(CC(F)(F)F)CC4)nn3)cc2c1Nc1ccc(F)c(Cl)c1 [Example 1014], N#Cc1cnc2c(Cl)cc(NCc3cn(C4CCN(CCF)CC4)nn3)cc2c1Nc1ccc(F)c(Cl)c1 [Example 1016] is 1.27 log units higher in pIC50: 6.55 for the first, 7.82 for the second.

Going from CCNC(=O)N1CCN(CCn2cc(CNc3cc(Cl)c4ncc(C#N)c(Nc5ccc(F)c(Cl)c5)c4c3)nn2)CC1 [Example 962] to CN1C(C)(C)CC(n2cc(CNc3cc(Cl)c4ncc(C#N)c(Nc5ccc(F)c(Cl)c5)c4c3)nn2)CC1(C)C [Example 1043], the pIC50 falls from 7.64 to 7.28 (0.36 log units). The first is the more potent here.

Going from N#Cc1cnc2c(Cl)cc(NCc3cc(Br)co3)cc2c1Nc1ccc(F)c(Cl)c1 [Example 1024] to CC(C)N1CCC(c2cncc(CNc3cc(Cl)c4ncc(C#N)c(Nc5ccc(F)c(Cl)c5)c4c3)c2)CC1 [Example 1061], the pIC50 rises from under 5.52 to 6.22. The second is the more potent here.

For N#Cc1cnc2c(Cl)cc(NCc3cn(CCN4CCCCCC4)nn3)cc2c1NC1CCCC2(CCCC2)C1 (stereo not drawn) [Example 976], the pIC50 was under 5.52.
